Experimental data reported in EPA's ToxValDB 9.5.
≈ marks a conversion by molar mass, not a printed value. Each block holds one compound with its values, some of them ahead of it.

Assays:
Anas platyrhynchos = settings: oral, mortality
Rattus norvegicus = settings: for LD50: acute, mortality
Pontoscolex corethrurus = settings: acute; mortality
Daphnia magna = settings: for NOEC: chronic/long-term, duration: 21 days
Gallus gallus = settings: subchronic; duration: 56 days; oral; diet; F; no effects
Homo sapiens = settings: clinical
Chrysoperla externa = experiment: LR50; higher = less toxic; settings: not reported; duration: 34 days; mortality
Tagia sp. = settings: acute; duration: 14 days; mortality
Aphidius rhopalosiphi = settings: not reported; mortality
Apis mellifera = settings: acute, mortality
Bibionidae = settings: chronic/long-term, duration: 28 days
Zea sp. = settings: acute; duration: 22 days; biomass
Mus musculus = settings: repeat dose other
Colinus virginianus = settings: for LD50: acute, oral, mortality
Aphidius colemani = experiment: LR50; higher = less toxic; settings: not reported; mortality
[1] = subchronic, duration: 90 days, oral
[2] = acute, duration: 96 hours, mortality
[3] = chronic/long-term, duration: 28 days, growth
[4] = reproduction developmental, no effects

SMILES: NC(Cc1ncn[nH]1)C(=O)O (stereo unspecified) [1,2,4-Triazole-3-alanine]
NOAEL (Oryctolagus sp.; developmental, development): 30 mg/kg-day | LC50 (Anas platyrhynchos; short-term, duration: 5 days, feed): > 1340 mg/kg-day | LD50 (Rattus norvegicus; oral): > 5000 mg/kg-day | NOAEL (Rattus norvegicus; chronic): 100 mg/kg-day | NOAEL (Rattus norvegicus; developmental, development): 100 mg/kg-day

SMILES: CCc1nccnc1C(C)=O [1-(3-Ethylpyrazinyl)ethan-1-one]
LC50 (Pontoscolex corethrurus): 360 mg/kg

SMILES: CSCSSC [2,3,5-Trithiahexane]
NOAEL [1]: 0.23 mg/kg-day | NOEL (Rattus norvegicus; subchronic, duration: 13 weeks, oral, diet): 0.3 mg/kg-day | NOAEL (Rattus norvegicus; [1]): 0.23 mg/kg-day

SMILES: CCc1nccnc1CC [2,3-Diethylpyrazine]
LC50 (Pontoscolex corethrurus): 236 mg/kg

SMILES: Cc1cc(SC(=O)CC(C)C)c(C)o1 [2,5-Dimethyl-3-thioisovalerylfuran]
NOAEL (subchronic, duration: 90 days): 0.73 mg/kg-day | NOAEL (Rattus norvegicus; subchronic, duration: 90 days): 0.73 mg/kg-day

SMILES: CCc1occc(=O)c1O [2-Ethyl-3-hydroxy-4-pyrone]
NOAEL (repeat dose other): 200 mg/kg-day

SMILES: Cc1csc(C(C)C)n1 [2-Isopropyl-4-methylthiazole]
LC50 (Daphnia magna; acute, mortality): 9 µg/mL (≈ 63.7 µM) | LC50 (Pontoscolex corethrurus): 194 mg/kg

SMILES: COc1nccnc1C [2-Methoxy-3-methylpyrazine]
LC50 (Pontoscolex corethrurus): 245 mg/kg

SMILES: c1csc(SSc2cccs2)c1 [2-Thienyl disulfide]
NOAEL (repeat dose other): 0.29 mg/kg-day | NOAEL (Rattus norvegicus; subchronic, duration: 90 days): 0.29 mg/kg-day

SMILES: CCCC/C=C\CCO [3-Octen-1-ol, (3Z)-]
LC50 (Pontoscolex corethrurus): 194 mg/kg

SMILES: CC(=O)C(C)Sc1ccoc1C (stereo unspecified) [3-[(2-Methylfuran-3-yl)sulfanyl]butan-2-one]
NOAEL (subchronic, duration: 90 days): 3.76 mg/kg-day | NOAEL (Rattus norvegicus; subchronic, duration: 90 days, oral, diet): 3.76 mg/kg-day

LEL (Gallus gallus): 80 mg/kg-day
SMILES: CCOC(=O)/C(C)=C/C=C/C(C)=C/C=C/C=C(C)/C=C/C=C(C)/C=C/C1=C(C)CCCC1(C)C [8'-Apo-beta, psi-carotenoid acid, ethyl ester]
NOAEL (Rattus norvegicus; subchronic, histopathology: nonneoplastic): 3 mg/kg-day

SMILES: CN1CCC[C@H]1c1cccnc1 [(-)-Nicotine]
LOAEL (Homo sapiens; injection, intravenous, clinical signs): 0.0035 mg/kg-day

SMILES: C/C=C(\C)C(=O)O[C@H]1C[C@@H](OC(C)=O)[C@@]2(C(=O)OC)CO[C@H]3[C@@H](O)[C@@](C)([C@]45O[C@@]4(C)[C@H]4C[C@@H]5O[C@@H]5OC=C[C@@]54O)[C@H]4[C@]1(CO[C@]4(O)C(=O)OC)[C@@H]32 [Azadirachtin]
LR50 (Chrysoperla externa): 0.77 g/ha | LC50 (Tagia sp.): > 1000 mg/kg | NOEC (Daphnia magna; reproduction): 0.038 mg/L | LC50 (Oncorhynchus mykiss; [2]): 0.048 µg/mL (≈ 0.0666 µM) | NOEC (Oncorhynchus mykiss; [3]): 0.0047 mg/L | LEL (Aphidius rhopalosiphi): 57.6 g/ha | LD50 (Apis mellifera; dermal): > 11.8 µg/piece | LD50 (Apis mellifera; duration: 48 hours, oral, unspecified): > 8.1 µg/piece | LD50 (Apis mellifera; oral, unspecified): > 8.1 µg/piece | NOEC (Bibionidae): 0.0016 mg/L | NOEC (Bibionidae; development): 0.0016 mg/L | LEL (Zea sp.): 30.9 g/ha

SMILES: CC(=O)[O-].CC(=O)[O-].O.O.O.O.[Co+2] [Cobalt(II) acetate tetrahydrate]
LOAEL (Homo sapiens; duration: 22 days, oral, hematological): 1 mg/kg-day

SMILES: COCCOC(=O)C(C#N)(C(=O)c1ccccc1C(F)(F)F)c1ccc(C(C)(C)C)cc1 (stereo unspecified) [Cyflumetofen]
NOEC (Daphnia magna; mortality): 0.065 mg/L | LC50 (Cyprinus carpio; [2]): > 0.54 µg/mL | NOEC (Cyprinus carpio; [3]): ≥ 0.072 mg/L | NOEC (Bibionidae; development): ≥ 0.064 mg/L

SMILES: C=C(C)[C@H]1CC=C(C)CC1 [D-Limonene]
NOAEL (Mus musculus; gross pathology): 250 mg/kg-day | NOAEL (Mus musculus; injection, intraperitoneal): 215 mg/kg-day | NOAEL (Rattus norvegicus; repeat dose other, histopathology: nonneoplastic): 250 mg/kg-day

SMILES: Fc1ccc([C@@]2(Cn3cncn3)O[C@@H]2c2ccccc2Cl)cc1 [Epoxiconazole]
LD50 (Colinus virginianus; diet): > 907 mg/kg | LD50 (Colinus virginianus): > 2000 mg/kg | NOEL (Colinus virginianus; reproduction developmental): 1 mg/kg-day | LD50 (Rattus norvegicus): 3160 mg/kg | NOAEL (Rattus norvegicus; reproduction developmental): 2.3 mg/kg-day

SMILES: OC[C@@H](O)[C@@H](O)CO [Erythritol]
NOAEL (Homo sapiens; duration: 27 months, oral, drinking water, clinical signs): 710 mg/kg-day

SMILES: NC=O [Formamide]
NOAEL (Oryctolagus sp.; reproduction developmental, duration: 13 days, oral, gavage, F, New Zealand, reproduction): 34 mg/kg-day

SMILES: CCOP(=O)=O.CCOP(=O)=O.CCOP(=O)=O.[Al+3] [Fosetyl aluminum]
NOEC (Colinus virginianus; reproduction developmental, reproduction): 216 mg/kg-day | NOAEL (Rattus norvegicus; short-term, histopathology: nonneoplastic): 500 mg/kg-day

SMILES: C=C1C[C@]23C[C@@]1(O)CC[C@H]2[C@@]12C=C[C@H](O)[C@@](C)(C(=O)O1)[C@H]2[C@@H]3C(=O)O [Gibberellic acid]
LR50 (Aphidius colemani): > 10 g/ha | LD50 (Colinus virginianus; diet): > 904 mg/kg-day | LD50 (Apis mellifera; dermal): > 25 µg/piece | NOEL (Oryctolagus sp.; [4]): 1000 mg/kg-day | LD50 (Anas platyrhynchos; acute, unspecified): > 2000 mg/kg | LD50 (Rattus norvegicus; oral): > 5000 mg/kg | NOEL (Rattus norvegicus; [4]): 1000 mg/kg-day | NOAEL (Rattus norvegicus; subchronic, duration: 90 days, oral, organ weight): 680 mg/kg-day
